Measurements: patent publication US20250143305A1, “PYRAZOLE COMPOUND AND PEST CONTROL AGENT CONTAINING THE SAME AS ACTIVE INGREDIENT” (MITSUI CHEMICALS CROP & LIFE SOLUTIONS, INC., priority 2022, published 2025)

What was measured:
Format in all cases: in vivo
[1] = tested on: Nilaparvata lugens; assay: Insecticidal test against Nilaparvata lugens, spray on rice seedling; settings: 144 h, acetone solution sprayed on rice seedling, 10 young larvae, 25° C., after 6 days, read-out: mortality rate
Method: (§1) Insecticidal Test Against Nilaparvata lugens
(§2) 2.5 ml of an acetone solution prepared to have a predetermined concentration of the test compound was sprayed on a rice (Oryza sativa) seedling, and the rice seedling was transferred to a glass tube in which water was retained. After air drying, 10 young larvae were released into the glass tube, and the glass tube was covered with a sponge stopper. The glass tube was allowed to stand in a thermostatic chamber at 25° C., and the numbers of living insects and dead insects were examined after 6 days.

[2] = tested on: Nilaparvata lugens; assay: Insecticidal test against Nilaparvata lugens, root part of rice seedling immersed; settings: 144 h, 2% acetone aqueous solution, 10 young larvae, 25° C., after 6 days, read-out: mortality rate
Method: as §1
12.5 ml of a 2% acetone aqueous solution in which the test compound was adjusted to a predetermined concentration was placed in a container, and a root part of a rice (Oryza sativa) seedling fixed with a sponge and a plastic cylinder was immersed. 10 young larvae were released into the container, and the container was covered with a plastic lid. The container was allowed to stand in a thermostatic chamber at 25° C., and the numbers of living insects and dead insects were examined after 6 days.

[3] = tested on: Sogatella furcifera; assay: Insecticidal test against Sogatella furcifera, spray on rice seedling; settings: 144 h, acetone solution sprayed on rice seedling, 10 young larvae, 25° C., after 6 days, read-out: mortality rate
Method: Insecticidal Test Against Sogatella furcifera
as §2

[4] = tested on: Myzus persicae; assay: Insecticidal test against Myzus persicae, spray on radish leaves; settings: 120 h, 20% acetone aqueous solution sprayed on radish leaves, 25 young larvae, 25° C., after 5 days, read-out: mortality rate
Method: (§3) Insecticidal Test Against Myzus persicae
2.5 ml of a 20% acetone aqueous solution prepared to have a predetermined concentration of the test compound was sprayed on the leaves of radish (Raphanus sativus) in which the roots retained water and 25 young larvae were parasitized. After air drying, it was allowed to stand in a thermostatic chamber at 25° C., and the number of living insects and the number of dead insects were examined after 5 days.

[5] = tested on: Myzus persicae; assay: Insecticidal test against Myzus persicae, root part of radish seedling immersed; settings: 120 h, 2% acetone aqueous solution, 25 young larvae, 25° C., after 5 days, read-out: mortality rate
Method: as §3
12.5 ml of a 2% acetone aqueous solution in which the test compound was adjusted to a predetermined concentration was placed in a container, and a root part of a young radish (Raphanus sativus) seedling that was fixed with a sponge and parasitized with 25 young larvae was immersed. The container was allowed to stand in a thermostatic chamber at 25° C., and the numbers of living insects and dead insects were examined after 5 days.

[6] = tested on: Spodoptera litura; assay: Insecticidal test against Spodopteta litura, cabbage leaf pieces immersed; settings: 144 h, 1,000 ppm, cabbage leaf pieces immersed 30 seconds, five 2nd instar larvae, 25° C., after 6 days, read-out: mortality rate
Method: Insecticidal Test Against Spodopteta litura
Cabbage (Brassicae oleracea) leaf pieces were immersed in a chemical solution prepared to have a predetermined concentration of the test compound for 30 seconds, air-dried, then placed in a 7 cm polyethylene cup with a filter paper laid thereon, and five 2nd instar larvae of Spodoptera litura were released. The container was allowed to stand in a thermostatic chamber at 25° C., and the numbers of living insects and dead insects were examined after 6 days.

Compound	mortality at 100 ppm [1] [%]	mortality at 100 ppm [2] [%]	mortality at 100 ppm [3] [%]	mortality at 100 ppm [4] [%]	mortality at 100 ppm [5] [%]	mortality at 1000 ppm [6] [%]
CCSc1c(-c2nc3cc(C(F)(F)F)ncn3n2)nn(C)c1NC(C)=O [compound 10, N-(4-(ethylthio)-1-methyl-3-(7-(trifluoromethyl)-[1,2,4]triazolo[1,5-c]pyrimidin-2-yl)-1H-pyrazol-5-yl)acetamide]	≥ 50					
CCS(=O)(=O)c1c(-c2cn3cnc(C(F)(F)F)cc3n2)nn(C)c1N [compound 100, 4-(ethylsulfonyl)-1-methyl-3-(7-(trifluoromethyl)imidazo[1,2-c]pyrimidin-2-yl)-1H-pyrazol-5-amine]	≥ 50	≥ 50	≥ 50	≥ 50		
CCSc1c(-c2cn3cnc(C(F)(F)F)cc3n2)nn(C)c1NC(=O)OC(C)(C)C [compound 26, t-butyl(4-(ethylthio)-1-methyl-3-(7-(trifluoromethyl)imidazo[1,2-c]pyrimidin-2-yl)-1H-pyrazol-5-yl)carbamate]			≥ 50			
CCS(=O)(=O)c1c(-c2nc3cc(C(F)(F)F)ncn3c2Br)nn(C)c1NC(=O)C(F)(F)F [compound 54, N-(3-(3-bromo-7-(trifluoromethyl)imidazo[1,2-c]pyrimidin-2-yl)-4-(ethylsulfonyl)-1-methyl-1H-pyrazol-5-yl)-2,2,2-trifluoroacetamide]	≥ 50	≥ 50	≥ 50	≥ 50		
CCSc1c(-c2nc3cc(C(F)(F)F)ncn3n2)nn(C)c1N [compound 5, 4-(ethylthio)-1-methyl-3-(7-(trifluoromethyl)-[1,2,4]triazolo[1,5-c]pyrimidin-2-yl)-1H-pyrazol-5-amine]				≥ 50		
CCSc1c(-c2cn3cnc(C(F)(F)F)cc3n2)nn(C)c1NC [compound 29, 4-(ethylthio)-N,1-dimethyl-3-(7-(trifluoromethyl)imidazo[1,2-c]pyrimidin-2-yl)-1H-pyrazol-5-amine]	≥ 50		≥ 50			
CCS(=O)(=O)c1c(-c2cn3cnc(C(F)(F)F)cc3n2)nn(C)c1NC(=O)C(F)(F)F [compound 1, N-(4-(ethylsulfonyl)-1-methyl-3-(7-(trifluoromethyl)imidazo[1,2-c]pyrimidin-2-yl)-1H-pyrazol-5-yl)-2,2,2-trifluoroacetamide]	≥ 50	≥ 50	≥ 50	≥ 50	≥ 50	
CCSc1c(-c2nc3cc(C(F)(F)F)ncn3n2)nn(C)c1NC(=O)OC(C)(C)C [compound 4, t-butyl (4-(ethylthio)-1-methyl-3-(7-(trifluoromethyl)-[1,2,4]triazolo[1,5-c]pyrimidin-2-yl)-1H-pyrazol-5-yl)carbamate]	≥ 50					
CCS(=O)(=O)c1c(-c2nc3cc(C(F)(F)F)ncn3c2Cl)nn(C)c1NC(=O)C(F)(F)F [compound 53, N-(3-(3-chloro-7-(trifluoromethyl)imidazo[1,2-c]pyrimidin-2-yl)-4-(ethylsulfonyl)-1-methyl-1H-pyrazol-5-yl)-2,2,2-trifluoroacetamide]	≥ 50	≥ 50	≥ 50	≥ 50		
CCSc1c(-c2cn3cnc(C(F)(F)F)cc3n2)nn(C)c1NC(=O)c1ccccn1 [compound 84, N-(4-(ethylthio)-1-methyl-3-(7-(trifluoromethyl)imidazo[1,2-c]pyrimidin-2-yl)-1H-pyrazol-5-yl)picolinamide]	≥ 50					≥ 50
CCSc1c(-c2cn3cnc(C(F)(F)F)cc3n2)nn(C)c1N(C)C(=O)C(F)(F)F [compound 30, N-(4-(ethylthio)-1-methyl-3-(7-(trifluoromethyl)imidazo[1,2-c]pyrimidin-2-yl)-1H-pyrazol-5-yl)-2,2,2-trifluoro-N-methylacetamide]		≥ 50	≥ 50			
CCS(=O)(=O)c1c(-c2cn3cnc(C(F)(F)F)cc3n2)nn(C)c1NC(=O)c1ccccn1 [compound 86, N-(4-(ethylsulfonyl)-1-methyl-3-(7-(trifluoromethyl)imidazo[1,2-c]pyrimidin-2-yl)-1H-pyrazol-5-yl)picolinamide]	≥ 50			≥ 50		≥ 50
CCSc1c(-c2cn3cnc(C(F)(F)F)cc3n2)nn(C)c1N [compound 39, 4-(ethylthio)-1-methyl-3-(7-(trifluoromethyl)imidazo[1,2-c]pyrimidin-2-yl)-1H-pyrazol-5-amine]	≥ 50	≥ 50	≥ 50	≥ 50		
CCSc1c(-c2cn3cnc(C(F)(F)F)cc3n2)nn(C)c1NC(=O)C(F)(F)F [compound 27]	≥ 50		≥ 50	≥ 50		
CCSc1c(-c2cn3cnc(C(F)(F)F)cc3n2)nn(C)c1N(C)C(=O)OC(C)(C)C [compound 28, t-butyl(4-(ethylthio)-1-methyl-3-(7-(trifluoromethyl)imidazo[1,2-c]pyrimidin-2-yl)-1H-pyrazol-5-yl)(methyl)carbamate]	≥ 50					
CCS(=O)(=O)c1c(-c2nc3cc(C(F)(F)F)ncn3n2)nn(C)c1NC(C)=O [compound 11, N-(4-(Ethylsulfonyl)-1-methyl-3-(7-(trifluoromethyl)-[1,2,4]triazolo[1,5-c]pyrimidin-2-yl)-1H-pyrazol-5-yl)acetamide]	≥ 50	≥ 50	≥ 50	≥ 50		
